According to patent publication US20250346600A1, “TRICYCLIC DERIVATIVES AND RELATED USES” (MOMA Therapeutics, Inc., priority 2023, published 2025):

Experiments:
[1] = target: T1, Full length WRN protein (aa 2-1432) (Homo sapiens (Human), UniProt Q14191); experiment: WRN ATPase ADP-Glo biochemical assay, Assay Format A (10 μM ATP); conditions: 0.25 nM WRN, 100 nM C6.18 ssDNA, 30 min preincubation, read-out: ATPase ADPGlo AC50 (uM)- Assay Format A
Outline: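 ADP-Glo luminescence measured hydrolysis of ATP by purified, baculovirus-expressed N-terminally tagged full-length WRN. Enzyme (0.5 nM) was preincubated 30 min with compound, then 200 nM ssDNA C6.18 plus 20 μM ATP were added (pre-mix levels) for 30 min at RT. IC50s come from four-parameter fits, geometric mean of at least two trials.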

HCT116 cells = experiment: HCT116 (MSI) 7 day viability, CellTiter Glo; assay type: cell-based; conditions: Homo sapiens, HCT-116, 168 h, 7 days, read-out: HCT116 (MSI) Viability 7 Day Abs AC50
Outline: (§1)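 HCT116 seeded at 50 cells/well and HT29 at 500 cells/well onto compound plates (10-point 3-fold dilutions from 10 mM DMSO stock), incubated 7 days at 37 °C, 5% CO2.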

[2] = target: T1, Full length WRN protein (aa 2-1432); experiment: WRN ATPase ADP-Glo biochemical assay, Assay Format B (100 μM ATP); conditions: 0.25 nM WRN, 100 nM C6.18 ssDNA, 60 min preincubation, read-out: ATPase ADPGlo AC50 (uM)- Assay Format B
HT29 cells = experiment: HT29 (MSS) 7 day viability, CellTiter Glo; assay type: cell-based; conditions: Homo sapiens, HT-29, 168 h, 7 days, read-out: HT29 (MSS) Viability 7 Day CTGAbs AC50
Outline: as §1

T1 sequence (Q14191 2-1432): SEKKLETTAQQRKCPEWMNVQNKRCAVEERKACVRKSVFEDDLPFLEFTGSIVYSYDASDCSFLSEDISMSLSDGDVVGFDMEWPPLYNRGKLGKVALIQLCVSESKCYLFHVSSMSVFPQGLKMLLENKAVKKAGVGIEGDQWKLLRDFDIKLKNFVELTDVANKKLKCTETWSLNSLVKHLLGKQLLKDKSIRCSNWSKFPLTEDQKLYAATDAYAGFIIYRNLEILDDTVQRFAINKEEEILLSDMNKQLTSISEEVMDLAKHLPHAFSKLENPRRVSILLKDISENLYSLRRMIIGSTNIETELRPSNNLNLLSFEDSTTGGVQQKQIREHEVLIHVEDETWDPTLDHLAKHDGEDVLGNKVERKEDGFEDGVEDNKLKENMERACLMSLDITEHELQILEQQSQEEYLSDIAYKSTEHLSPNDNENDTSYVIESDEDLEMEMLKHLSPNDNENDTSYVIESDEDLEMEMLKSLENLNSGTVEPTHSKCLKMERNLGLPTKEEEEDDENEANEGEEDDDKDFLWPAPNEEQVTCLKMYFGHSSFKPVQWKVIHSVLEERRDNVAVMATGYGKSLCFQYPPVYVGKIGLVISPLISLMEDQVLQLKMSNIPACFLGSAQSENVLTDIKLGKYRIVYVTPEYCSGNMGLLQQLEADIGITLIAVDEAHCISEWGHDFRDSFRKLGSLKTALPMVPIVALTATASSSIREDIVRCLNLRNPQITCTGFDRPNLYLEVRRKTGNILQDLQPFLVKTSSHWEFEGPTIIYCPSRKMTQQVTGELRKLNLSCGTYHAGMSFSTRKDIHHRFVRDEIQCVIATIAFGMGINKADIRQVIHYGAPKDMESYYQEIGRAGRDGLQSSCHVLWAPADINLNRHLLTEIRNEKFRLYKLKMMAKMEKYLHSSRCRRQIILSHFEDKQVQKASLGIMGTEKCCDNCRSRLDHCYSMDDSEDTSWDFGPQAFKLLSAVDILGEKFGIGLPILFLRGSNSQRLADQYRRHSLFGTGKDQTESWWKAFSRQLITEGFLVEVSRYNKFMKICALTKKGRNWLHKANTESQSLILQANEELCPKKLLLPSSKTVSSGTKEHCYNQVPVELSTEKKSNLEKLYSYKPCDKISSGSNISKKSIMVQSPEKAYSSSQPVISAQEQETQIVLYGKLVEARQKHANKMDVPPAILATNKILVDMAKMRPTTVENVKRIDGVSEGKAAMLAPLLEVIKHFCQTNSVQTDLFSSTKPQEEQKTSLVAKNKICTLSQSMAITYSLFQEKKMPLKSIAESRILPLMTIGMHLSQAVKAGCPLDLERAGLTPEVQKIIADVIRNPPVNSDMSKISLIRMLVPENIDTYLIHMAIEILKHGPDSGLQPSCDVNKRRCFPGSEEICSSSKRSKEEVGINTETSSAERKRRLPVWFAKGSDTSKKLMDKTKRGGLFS

SMILES: Nc1cc(C(F)(F)F)ncc1C(=O)N1CCc2c3c(nn2-c2ccc(C4CCC4)cc2)CCN(C(=O)/C=C\Cl)CC31 (centres unmarked) [Compound 243, 1-(5-(4-amino-6-(trifluoromethyl)nicotinoyl)-2-(4-cyclobutylphenyl)-2,3,4,5,5a,6,8,9-octahydro-7H-1,2,5,7-tetraazabenzo[cd]azulen-7-yl)-3-chloroprop-2-en-1-one]
- AC50 [1]: 0.0015 to 0.005 µM
- AC50 (HCT116 cells): 1 to 100 nM
- AC50 [2]: 0.015 to 0.055 µM
- AC50 (HT29 cells): 1000 to 3000 nM

SMILES: C=CC(=O)N1CCc2nn(-c3cc(F)c(C4CC4)c(F)c3O)c3c2C(C1)N(C(=O)c1cnc(C(F)(F)F)cc1N)CC3 (centres unmarked) [Compound 244, 1-(5-(4-amino-6-(trifluoromethyl)nicotinoyl)-2-(4-cyclopropyl-3,5-difluoro-2-hydroxyphenyl)-2,3,4,5,5a,6,8,9-octahydro-7H-1,2,5,7-tetraazabenzo[cd]azulen-7-yl)prop-2-en-1-one]
- AC50 [1]: 0.0015 to 0.005 µM
- AC50 (HCT116 cells): 1 to 100 nM
- AC50 [2]: 0.015 to 0.055 µM
- AC50 (HT29 cells): > 3000 nM

SMILES: C=CC(=O)N1CCc2nn(-c3ccc(C4CC4)cc3O)c3c2C(C1)N(C(=O)c1ccc(C(F)(F)F)cc1N)CC3 (centres unmarked) [Compound 245, 1-(5-(2-amino-4-(trifluoromethyl)benzoyl)-2-(4-cyclopropyl-2-hydroxyphenyl)-2,3,4,5,5a,6,8,9-octahydro-7H-1,2,5,7-tetraazabenzo[cd]azulen-7-yl)prop-2-en-1-one]
- AC50 [1]: < 0.0015 µM
- AC50 (HCT116 cells): 1 to 100 nM
- AC50 [2]: 0.005 to 0.015 µM
- AC50 (HT29 cells): > 3000 nM

SMILES: C=CC(=O)N1CC(OC2CC3(COC3)C2)c2nn(-c3ccc(C4CCC4)cc3)c3c2C(C1)N(C(=O)c1cnc(C(F)(F)F)cc1N)CC3 (centres unmarked) [Compound 246]
- AC50 [1]: < 0.0015 µM
- AC50 (HCT116 cells): 1 to 100 nM
- AC50 [2]: 0.005 to 0.015 µM
- AC50 (HT29 cells): > 3000 nM

SMILES: C=CC(=O)N1CCc2nn(-c3ccc(C4CC4)cc3O)c3c2C(C1)N(C(=O)c1cnc(OC(F)(F)F)c(F)c1N)CC3 (centres unmarked) [Compound 247, 1-(5-(4-amino-5-fluoro-6-(trifluoromethoxy)nicotinoyl)-2-(4-cyclopropyl-2-hydroxyphenyl)-2,3,4,5,5a,6,8,9-octahydro-7H-1,2,5,7-tetraazabenzo[cd]azulen-7-yl)prop-2-en-1-one]
- AC50 [1]: 0.0015 to 0.005 µM
- AC50 (HCT116 cells): 1 to 100 nM
- AC50 [2]: 0.005 to 0.015 µM
- AC50 (HT29 cells): > 3000 nM

SMILES: C=CC(=O)N1CCc2nn(-c3ccc(C4CC4)cc3O)c3c2C(C1)N(C(=O)c1nnc(C(F)(F)F)cc1N)CC3 (centres unmarked) [Compound 248, 1-(5-(4-amino-6-(trifluoromethyl)pyridazine-3-carbonyl)-2-(4-cyclopropyl-2-hydroxyphenyl)-2,3,4,5,5a,6,8,9-octahydro-7H-1,2,5,7-tetraazabenzo[cd]azulen-7-yl)prop-2-en-1-one]
- AC50 [1]: < 0.0015 µM
- AC50 (HCT116 cells): 1 to 100 nM
- AC50 [2]: 0.0015 to 0.005 µM
- AC50 (HT29 cells): > 3000 nM

SMILES: C=CC(=O)N1CC(OCc2nnc(C)s2)c2nn(-c3ccc(C4CC4)cc3)c3c2C(C1)N(C(=O)c1cnc(C(F)(F)F)cc1N)CC3 (centres unmarked) [Compound 249, 1-(5-(4-amino-6-(trifluoromethyl)nicotinoyl)-2-(4-cyclopropylphenyl)-9-((5-methyl-1,3,4-thiadiazol-2-yl)methoxy)-2,3,4,5,5a,6,8,9-octahydro-7H-1,2,5,7-tetraazabenzo[cd]azulen-7-yl)prop-2-en-1-one]
- AC50 [1]: < 0.0015 µM
- AC50 (HCT116 cells): 1 to 100 nM
- AC50 [2]: 0.0015 to 0.005 µM
- AC50 (HT29 cells): > 3000 nM

SMILES: C=CC(=O)N1CC(OCc2ncco2)c2nn(-c3ccc(C4CC4)cc3)c3c2C(C1)N(C(=O)c1cnc(C(F)(F)F)cc1N)CC3 (centres unmarked) [Compound 250, 1-(5-(4-amino-6-(trifluoromethyl)nicotinoyl)-2-(4-cyclopropylphenyl)-9-(oxazol-2-ylmethoxy)-2,3,4,5,5a,6,8,9-octahydro-7H-1,2,5,7-tetraazabenzo[cd]azulen-7-yl)prop-2-en-1-one]
- AC50 [1]: < 0.0015 µM
- AC50 (HCT116 cells): 1 to 100 nM
- AC50 [2]: < 0.0015 µM
- AC50 (HT29 cells): > 3000 nM
